# Test results published in ChEMBL document CHEMBL1201862, “PubChem BioAssay data set” (2004).
# Activity calls are given as the source filed them.
# Key:
# [1] = molecular target: T1, Alkaline phosphatase, tissue-nonspecific isozyme (Homo sapiens, UniProt P05186); test: TNAP enzyme inhibition by screening hits, dose response, selectivity assay for mouse IAP inhibitor project, biochemical, human TNAP, uHTS hits (AID 488906); type: functional
# T1 sequence (P05186 whole entry): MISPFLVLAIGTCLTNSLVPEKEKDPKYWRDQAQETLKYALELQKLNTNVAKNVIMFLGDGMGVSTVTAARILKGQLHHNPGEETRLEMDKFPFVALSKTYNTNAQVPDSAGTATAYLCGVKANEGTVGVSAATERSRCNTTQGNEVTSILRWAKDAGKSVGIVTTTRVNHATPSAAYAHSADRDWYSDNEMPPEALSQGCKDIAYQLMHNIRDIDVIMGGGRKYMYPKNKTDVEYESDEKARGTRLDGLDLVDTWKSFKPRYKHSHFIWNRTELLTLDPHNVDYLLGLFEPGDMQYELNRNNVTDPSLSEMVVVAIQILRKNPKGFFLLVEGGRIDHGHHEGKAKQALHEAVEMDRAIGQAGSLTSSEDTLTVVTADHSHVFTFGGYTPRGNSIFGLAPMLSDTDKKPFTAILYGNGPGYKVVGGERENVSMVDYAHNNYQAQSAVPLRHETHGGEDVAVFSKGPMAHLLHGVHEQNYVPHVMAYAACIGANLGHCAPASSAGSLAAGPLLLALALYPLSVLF
# Bcl-2-like protein 1 = Bcl-2-like protein 1 (Homo sapiens, UniProt Q07817); test: BCL-XL inhibitors, dose response, selectivity assay for MCL1 inhibitor project, biochemical, fluorescence polarization, 1536-well (AID 2218)
# [2] = molecular target: T2, Small ubiquitin-related modifier 1 (Homo sapiens, UniProt P63165); test: inhibitors of SUMO1 partner interactions, dose response, biochemical, FRET (AID 624383); type: functional; conditions: read-out: IC50_Mean
# T2 sequence (P63165 whole entry): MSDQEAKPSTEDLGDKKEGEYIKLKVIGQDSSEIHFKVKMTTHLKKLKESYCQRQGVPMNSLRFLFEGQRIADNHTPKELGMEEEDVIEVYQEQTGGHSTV
# [3] = molecular target: T2, Small ubiquitin-related modifier 1; test: inhibitors of SUMO1 peptide binding, dose response, biochemical, fluorescence polarization, uHTS hits (AID 624382); type: functional; conditions: read-out: IC50_Mean
# [4] = molecular target: Intestinal-type alkaline phosphatase (Mus musculus, UniProt P24822); test: PubChem AID 488785; type: functional
# [5] = molecular target: T3, Intestinal-type alkaline phosphatase (Homo sapiens, UniProt P09923); test: activation of human intestinal alkaline phosphatase – biochemical, dose response (AID 488873); type: functional
# T3 sequence (P09923 whole entry): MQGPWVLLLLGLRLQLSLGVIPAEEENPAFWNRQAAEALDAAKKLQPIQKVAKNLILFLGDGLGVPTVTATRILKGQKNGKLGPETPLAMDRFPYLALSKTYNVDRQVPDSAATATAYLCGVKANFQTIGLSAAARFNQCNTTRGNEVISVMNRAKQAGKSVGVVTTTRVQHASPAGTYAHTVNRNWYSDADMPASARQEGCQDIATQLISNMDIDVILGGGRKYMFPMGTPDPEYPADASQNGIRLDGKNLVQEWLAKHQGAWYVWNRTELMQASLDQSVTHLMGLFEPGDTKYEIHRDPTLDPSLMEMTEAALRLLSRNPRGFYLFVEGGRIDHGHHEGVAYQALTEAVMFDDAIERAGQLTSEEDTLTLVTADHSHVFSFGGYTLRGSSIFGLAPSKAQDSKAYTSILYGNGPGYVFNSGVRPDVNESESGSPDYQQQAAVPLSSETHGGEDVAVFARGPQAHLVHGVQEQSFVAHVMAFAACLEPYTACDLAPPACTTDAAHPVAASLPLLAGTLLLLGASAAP
# [6] = molecular target: DNA (cytosine-5)-methyltransferase 1 (Homo sapiens, UniProt P26358); test: DNMT1 methyltransferase inhibitors, confirmation, biochemical, fluorescent molecular beacon (AID 602386); type: functional
# [7] = molecular target: Induced myeloid leukemia cell differentiation protein Mcl-1 (Homo sapiens, UniProt Q07820); test: MCL1-BIM BH3 interaction inhibitors, dose response, biochemical, fluorescence polarization, BIM-BH3 peptide, 1536-well (AID 2217)
# [8] = inhibitors of SNCA 5'UTR-driven reporter translation, confirmation, H4 neuroglioma cells, luminescence (AID 1988); type: functional, cell-based
# [9] = THP-1 cell cytotoxicity, dose response, cytotoxicity control for non-replicating M. tuberculosis project (AID 489025); type: functional
# [10] = NIH-3T3 fibroblast cytotoxicity, dose response, cytotoxicity control, cell-based, fluorescence, Alamar Blue, secondary assay (AID 2327); type: functional;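 further: NIH-3T3 mouse fibroblasts cultured with fluconazole at 8 µg/mL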
# [11] = inhibitors of firefly luciferase expression or activity, dose response, H4 neuroglioma cells, luminescence (AID 1990); type: functional, cell-based
# [12] = molecular target: ATP-dependent molecular chaperone HSP82 (Candida albicans (strain WO-1) (Yeast), UniProt C4YTQ8); test: loss of DOC-induced GRE-beta-galactosidase reporter signal, dose response, Hsp90 inhibitor project, S. cerevisiae, luminescence (AID 2400); type: functional, cell-based;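 further: beta-galactosidase luminescence from glucocorticoid response element reporter as proxy for Hsp90 function; inhibitor potency where signal loss means Hsp90 inhibition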
# [13] = C. albicans growth with fluconazole, confirmation, fluorescence, retest (AID 2467); type: functional, cell-based
# Cytochrome P450 3A4 = Cytochrome P450 3A4 (Homo sapiens, UniProt P08684);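 further: CYP3A4 tested as one member of a cytochrome P450 panel screen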
# Sequence of Cytochrome P450 3A4 (P08684 whole entry): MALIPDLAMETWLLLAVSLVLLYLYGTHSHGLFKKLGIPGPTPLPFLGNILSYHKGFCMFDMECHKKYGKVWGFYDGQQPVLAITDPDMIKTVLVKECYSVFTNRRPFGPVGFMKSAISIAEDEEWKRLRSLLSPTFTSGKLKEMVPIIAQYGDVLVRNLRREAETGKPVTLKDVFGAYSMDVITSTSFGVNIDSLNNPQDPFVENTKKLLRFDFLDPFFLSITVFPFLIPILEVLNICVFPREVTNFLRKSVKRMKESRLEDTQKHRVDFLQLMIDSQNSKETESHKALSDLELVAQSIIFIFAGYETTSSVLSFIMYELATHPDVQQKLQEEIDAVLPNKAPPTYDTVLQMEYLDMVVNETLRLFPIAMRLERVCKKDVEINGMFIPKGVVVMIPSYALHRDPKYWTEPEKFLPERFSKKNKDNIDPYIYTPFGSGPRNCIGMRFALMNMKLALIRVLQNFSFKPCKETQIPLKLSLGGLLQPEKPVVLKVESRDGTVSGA
# [14] = HepG2 cell cytotoxicity, dose response, cytotoxicity control for non-replicating M. tuberculosis project (AID 489018); type: functional; conditions: Mycobacterium tuberculosis
# cells = type: functional
# [15] = Vero E6 cell cytotoxicity, dose response, cytotoxicity control for non-replicating M. tuberculosis project, secondary assay (AID 492998); type: functional, VeroE6; conditions: Vero C1008
# [16] = Luminescence Cell-Based Dose Response HTS to Identify Inhibitors of 5'UTR Stem-Loop Driven Prion Protein mRNA Translation in H4 Neuroglioblastoma Cells. [Related pubchem assays: 1827 (Project Summary), 1813 (Primary HTS)]; type: functional
# [17] = molecular target: Serine/threonine-protein phosphatase (Candida dubliniensis (strain CD36 / CBS 7987 / NCPF 3949 / NRRLY-17841) (Yeast), UniProt B9W6M3); test: calcineurin pathway inhibitors in yeast reporter, dose response, S. cerevisiae, CDRE-lacZ, luminescence, secondary (AID 2388); type: functional, cell-based;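 further: yeast reporter cells carrying a calcineurin-responsive lacZ construct stimulated with calcium chloride; luminescent beta-galactosidase reporter signal in whole cells rather than isolated phosphatase activity; potency for inhibition where a drop in reporter signal means calcineurin blockade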
# Sequence of Serine/threonine-protein phosphatase (B9W6M3 whole entry): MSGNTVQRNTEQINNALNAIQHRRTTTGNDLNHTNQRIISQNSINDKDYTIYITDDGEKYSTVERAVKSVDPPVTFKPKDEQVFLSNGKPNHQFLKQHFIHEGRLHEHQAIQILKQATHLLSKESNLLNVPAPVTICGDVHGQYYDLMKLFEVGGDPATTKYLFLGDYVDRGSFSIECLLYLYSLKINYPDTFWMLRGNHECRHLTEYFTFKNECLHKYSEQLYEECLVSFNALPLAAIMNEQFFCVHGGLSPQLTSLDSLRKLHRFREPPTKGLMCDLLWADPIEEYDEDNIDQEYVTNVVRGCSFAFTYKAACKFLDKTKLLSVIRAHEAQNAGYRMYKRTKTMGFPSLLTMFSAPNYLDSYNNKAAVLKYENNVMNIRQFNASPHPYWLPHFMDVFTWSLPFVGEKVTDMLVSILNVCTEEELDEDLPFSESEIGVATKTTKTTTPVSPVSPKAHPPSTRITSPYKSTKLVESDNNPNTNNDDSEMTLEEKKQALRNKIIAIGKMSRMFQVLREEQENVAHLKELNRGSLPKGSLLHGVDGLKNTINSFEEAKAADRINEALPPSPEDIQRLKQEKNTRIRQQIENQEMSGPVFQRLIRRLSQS
# [18] = molecular target: T4, Heat shock factor protein 1 (Mus musculus, UniProt P38532); test: inhibition of MG132-induced HSE-luciferase signal, confirmation, cell-based, NIH3T3, luminescence, dose retest (AID 2382); type: functional;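 further: NIH3T3 fibroblasts with HSF1-driven luciferase reporter stressed by proteasome inhibitor MG132; luminescence from HSF1-driven luciferase expression after 8 hours of MG132 stress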
# T4 sequence (P38532 whole entry): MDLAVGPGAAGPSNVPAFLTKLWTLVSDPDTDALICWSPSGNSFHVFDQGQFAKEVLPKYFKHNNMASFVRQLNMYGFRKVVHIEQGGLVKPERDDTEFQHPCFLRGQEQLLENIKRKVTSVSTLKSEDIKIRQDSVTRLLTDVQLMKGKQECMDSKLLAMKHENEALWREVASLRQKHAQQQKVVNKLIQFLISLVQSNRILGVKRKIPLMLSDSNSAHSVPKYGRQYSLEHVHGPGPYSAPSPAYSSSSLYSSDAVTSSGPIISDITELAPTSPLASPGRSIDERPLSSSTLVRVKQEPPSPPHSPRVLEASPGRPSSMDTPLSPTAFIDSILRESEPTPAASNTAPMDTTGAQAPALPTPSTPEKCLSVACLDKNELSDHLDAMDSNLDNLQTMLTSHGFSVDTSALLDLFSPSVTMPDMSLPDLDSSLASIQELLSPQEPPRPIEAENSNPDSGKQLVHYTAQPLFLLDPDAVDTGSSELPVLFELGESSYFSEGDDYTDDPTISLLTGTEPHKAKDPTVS
# [19] = molecular target: NACHT, LRR and PYD domains-containing protein 3 (Homo sapiens, UniProt Q96P20); test: NALP3 inhibitors in yeast, dose response, luminescent (AID 488799); type: functional
# Sequence of NACHT, LRR and PYD domains-containing protein 3 (Q96P20 whole entry, the tested form may be a part): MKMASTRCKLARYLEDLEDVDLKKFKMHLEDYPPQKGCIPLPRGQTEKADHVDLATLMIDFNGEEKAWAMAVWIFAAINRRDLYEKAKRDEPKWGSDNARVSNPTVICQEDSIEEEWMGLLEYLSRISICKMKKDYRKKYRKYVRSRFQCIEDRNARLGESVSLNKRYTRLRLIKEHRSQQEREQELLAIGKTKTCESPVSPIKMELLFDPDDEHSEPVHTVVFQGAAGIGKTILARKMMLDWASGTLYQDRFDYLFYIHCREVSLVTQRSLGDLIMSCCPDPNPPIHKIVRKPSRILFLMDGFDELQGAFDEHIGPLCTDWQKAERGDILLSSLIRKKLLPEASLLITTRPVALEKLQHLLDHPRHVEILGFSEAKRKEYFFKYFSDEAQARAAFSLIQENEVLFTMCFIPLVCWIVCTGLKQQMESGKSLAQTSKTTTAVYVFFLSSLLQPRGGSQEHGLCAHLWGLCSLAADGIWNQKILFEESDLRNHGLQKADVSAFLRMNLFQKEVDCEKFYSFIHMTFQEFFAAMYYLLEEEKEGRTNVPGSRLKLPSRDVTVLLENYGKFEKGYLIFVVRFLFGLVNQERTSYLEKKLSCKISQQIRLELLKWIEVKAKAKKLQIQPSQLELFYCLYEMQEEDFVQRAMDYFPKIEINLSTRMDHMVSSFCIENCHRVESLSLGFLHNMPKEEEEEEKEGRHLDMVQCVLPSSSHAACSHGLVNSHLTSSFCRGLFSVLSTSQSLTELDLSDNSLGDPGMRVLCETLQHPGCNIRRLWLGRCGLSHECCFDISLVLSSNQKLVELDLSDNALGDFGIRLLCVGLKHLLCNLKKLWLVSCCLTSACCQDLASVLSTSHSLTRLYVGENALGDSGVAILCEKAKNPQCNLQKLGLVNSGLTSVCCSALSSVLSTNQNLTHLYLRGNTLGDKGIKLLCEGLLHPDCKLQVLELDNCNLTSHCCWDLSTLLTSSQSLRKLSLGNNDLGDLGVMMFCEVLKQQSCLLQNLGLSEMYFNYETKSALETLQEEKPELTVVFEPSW
# [20] = molecular target: T5, Short transient receptor potential channel 4 (Mus musculus, UniProt Q9QUQ5); test: TRPC4 positive allosteric modulators, dose response, cell-based, HEK293 TRPC4/mu-opioid, Fluo-4 calcium, EC20 DAMGO (AID 434941); type: functional
# T5 sequence (Q9QUQ5 whole entry): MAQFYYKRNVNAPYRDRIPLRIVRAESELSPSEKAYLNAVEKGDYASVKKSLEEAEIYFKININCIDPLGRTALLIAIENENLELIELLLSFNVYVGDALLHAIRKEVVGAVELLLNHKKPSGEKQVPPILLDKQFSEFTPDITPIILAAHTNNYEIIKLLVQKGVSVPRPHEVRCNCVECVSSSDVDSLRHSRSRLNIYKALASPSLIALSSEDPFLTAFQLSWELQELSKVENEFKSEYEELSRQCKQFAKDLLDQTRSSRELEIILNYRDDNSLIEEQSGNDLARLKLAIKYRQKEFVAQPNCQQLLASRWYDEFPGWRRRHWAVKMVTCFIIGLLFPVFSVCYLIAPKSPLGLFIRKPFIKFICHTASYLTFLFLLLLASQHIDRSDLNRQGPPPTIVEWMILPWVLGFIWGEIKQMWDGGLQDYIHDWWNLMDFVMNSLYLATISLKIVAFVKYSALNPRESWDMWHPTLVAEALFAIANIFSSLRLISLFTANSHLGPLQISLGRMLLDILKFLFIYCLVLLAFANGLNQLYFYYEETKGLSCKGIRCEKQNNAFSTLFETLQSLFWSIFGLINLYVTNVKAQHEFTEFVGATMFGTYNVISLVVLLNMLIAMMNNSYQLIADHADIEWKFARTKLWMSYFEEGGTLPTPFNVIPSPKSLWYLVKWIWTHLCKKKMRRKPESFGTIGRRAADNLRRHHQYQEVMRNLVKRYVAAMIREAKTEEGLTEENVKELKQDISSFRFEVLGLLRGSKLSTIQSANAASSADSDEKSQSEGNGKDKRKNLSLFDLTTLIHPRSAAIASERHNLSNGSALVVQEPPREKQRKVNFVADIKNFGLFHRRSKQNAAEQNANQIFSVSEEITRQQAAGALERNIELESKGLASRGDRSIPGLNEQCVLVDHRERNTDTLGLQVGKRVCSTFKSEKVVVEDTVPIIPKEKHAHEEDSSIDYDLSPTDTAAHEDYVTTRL
# T-cell = test: inhibitors of CD8+ T cell–vesicle binding, dose response, mouse 2C CD8+ T cells, flow cytometry (AID 485284); type: functional
# Integrin alpha-L = Integrin alpha-L (Mus musculus, UniProt P24063); test: modulators of CD8 T cell-vesicle binding, dose response, powder samples, mouse 2C CD8+ cells (AID 504565); type: functional
# Sequence of Integrin alpha-L (P24063 whole entry): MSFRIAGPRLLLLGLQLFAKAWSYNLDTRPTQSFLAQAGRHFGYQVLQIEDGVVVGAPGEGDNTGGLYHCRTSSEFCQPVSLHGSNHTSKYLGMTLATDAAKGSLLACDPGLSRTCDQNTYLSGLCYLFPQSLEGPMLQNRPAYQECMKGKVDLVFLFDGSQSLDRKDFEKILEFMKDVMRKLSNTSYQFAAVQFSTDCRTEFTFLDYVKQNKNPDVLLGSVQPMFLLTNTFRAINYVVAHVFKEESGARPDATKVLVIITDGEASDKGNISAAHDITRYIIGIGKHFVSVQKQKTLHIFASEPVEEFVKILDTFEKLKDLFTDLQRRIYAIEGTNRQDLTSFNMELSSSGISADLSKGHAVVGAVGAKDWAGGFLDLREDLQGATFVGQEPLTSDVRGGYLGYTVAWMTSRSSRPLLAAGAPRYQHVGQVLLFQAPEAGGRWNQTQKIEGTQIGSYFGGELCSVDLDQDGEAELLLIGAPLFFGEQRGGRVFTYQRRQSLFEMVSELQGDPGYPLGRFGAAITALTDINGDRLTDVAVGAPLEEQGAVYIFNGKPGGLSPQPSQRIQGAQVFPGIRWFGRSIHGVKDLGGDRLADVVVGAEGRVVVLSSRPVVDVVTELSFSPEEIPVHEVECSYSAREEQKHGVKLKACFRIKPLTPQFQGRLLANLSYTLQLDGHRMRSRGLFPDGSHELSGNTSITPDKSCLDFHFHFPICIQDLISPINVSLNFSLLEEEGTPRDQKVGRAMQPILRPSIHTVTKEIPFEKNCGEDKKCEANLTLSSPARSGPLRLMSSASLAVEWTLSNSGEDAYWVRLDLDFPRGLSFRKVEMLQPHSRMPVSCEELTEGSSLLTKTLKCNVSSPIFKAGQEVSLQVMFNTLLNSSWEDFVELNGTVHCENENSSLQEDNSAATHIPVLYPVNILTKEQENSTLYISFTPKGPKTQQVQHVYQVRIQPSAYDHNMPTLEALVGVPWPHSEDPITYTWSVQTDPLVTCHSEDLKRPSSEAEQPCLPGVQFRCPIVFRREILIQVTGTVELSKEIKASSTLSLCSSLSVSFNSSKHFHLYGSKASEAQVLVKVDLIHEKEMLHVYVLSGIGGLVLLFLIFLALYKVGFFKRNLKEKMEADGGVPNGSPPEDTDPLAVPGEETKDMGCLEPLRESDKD
# [21] = molecular target: T3, Intestinal-type alkaline phosphatase; test: Dose Response confirmation of uHTS hits from a small molecule inhibitors of human intestinal alkaline phosphatase via a luminescent assay. [Related pubchem assays (depositor defined):AID2544, AID2574]; type: functional
# Cytochrome P450 2C9 = Cytochrome P450 2C9 (Homo sapiens, UniProt P11712)
# Sequence of Cytochrome P450 2C9 (P11712 whole entry): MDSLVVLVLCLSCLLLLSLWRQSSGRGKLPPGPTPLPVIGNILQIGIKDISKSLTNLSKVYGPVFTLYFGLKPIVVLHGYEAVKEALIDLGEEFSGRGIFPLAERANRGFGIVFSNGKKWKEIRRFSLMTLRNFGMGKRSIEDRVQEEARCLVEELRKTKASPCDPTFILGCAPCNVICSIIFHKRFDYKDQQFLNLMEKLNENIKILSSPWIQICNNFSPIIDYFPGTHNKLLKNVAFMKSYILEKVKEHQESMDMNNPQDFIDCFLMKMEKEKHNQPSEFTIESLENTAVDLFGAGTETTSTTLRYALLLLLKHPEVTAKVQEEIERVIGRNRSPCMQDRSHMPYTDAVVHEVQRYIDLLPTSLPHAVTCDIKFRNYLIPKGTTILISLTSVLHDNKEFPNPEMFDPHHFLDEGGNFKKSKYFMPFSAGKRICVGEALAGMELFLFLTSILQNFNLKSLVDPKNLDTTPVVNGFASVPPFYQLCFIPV
# [22] = molecular target: DNA dC->dU-editing enzyme APOBEC-3G (Homo sapiens, UniProt Q9HC16); test: Dose Response confirmation of small molecule APOBEC3G DNA Deaminase Inhibitors via a fluorescence-based single-stranded DNA deaminase assay. [Related pubchem assays (depositor defined):AID493012, AID493028]; type: functional
# [23] = molecular target: DNA dC->dU-editing enzyme APOBEC-3A (Homo sapiens, UniProt P31941); test: APOBEC3A DNA deaminase inhibitors, dose response, biochemical (AID 504722); type: functional
# Sequence of DNA dC->dU-editing enzyme APOBEC-3A (P31941 whole entry): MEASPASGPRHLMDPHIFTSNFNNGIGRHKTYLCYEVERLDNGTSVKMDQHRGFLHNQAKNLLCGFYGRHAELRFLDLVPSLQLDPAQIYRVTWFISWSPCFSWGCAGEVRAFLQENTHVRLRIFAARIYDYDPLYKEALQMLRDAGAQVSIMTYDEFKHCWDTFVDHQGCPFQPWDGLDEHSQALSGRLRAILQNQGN
# Beta-galactosidase = Beta-galactosidase (Escherichia coli, UniProt Q8VNN2); type: functional
# [24] = molecular target: T6, Kappa-type opioid receptor (Homo sapiens, UniProt P41145); type: functional
# T6 sequence (P41145 whole entry): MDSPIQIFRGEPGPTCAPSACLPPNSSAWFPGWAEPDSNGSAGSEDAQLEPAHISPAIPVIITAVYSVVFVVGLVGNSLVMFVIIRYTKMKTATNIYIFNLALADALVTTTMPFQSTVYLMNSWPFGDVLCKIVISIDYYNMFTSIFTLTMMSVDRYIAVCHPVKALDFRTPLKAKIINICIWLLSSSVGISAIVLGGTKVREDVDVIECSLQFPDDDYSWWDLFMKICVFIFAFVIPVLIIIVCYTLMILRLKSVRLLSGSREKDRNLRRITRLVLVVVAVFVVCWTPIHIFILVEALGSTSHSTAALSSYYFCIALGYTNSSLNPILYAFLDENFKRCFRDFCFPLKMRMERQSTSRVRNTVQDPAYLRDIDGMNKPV
# [25] = molecular target: T6, Kappa-type opioid receptor; type: functional; remark: listed apart in the source
# [26] = molecular target: T7, Tyrosine-protein phosphatase non-receptor type 7 (Homo sapiens, UniProt P35236); test: redox-dependent HePTP inhibition, mechanism study, biochemical, fluorescence (AID 2068); type: functional
# T7 sequence (P35236 whole entry): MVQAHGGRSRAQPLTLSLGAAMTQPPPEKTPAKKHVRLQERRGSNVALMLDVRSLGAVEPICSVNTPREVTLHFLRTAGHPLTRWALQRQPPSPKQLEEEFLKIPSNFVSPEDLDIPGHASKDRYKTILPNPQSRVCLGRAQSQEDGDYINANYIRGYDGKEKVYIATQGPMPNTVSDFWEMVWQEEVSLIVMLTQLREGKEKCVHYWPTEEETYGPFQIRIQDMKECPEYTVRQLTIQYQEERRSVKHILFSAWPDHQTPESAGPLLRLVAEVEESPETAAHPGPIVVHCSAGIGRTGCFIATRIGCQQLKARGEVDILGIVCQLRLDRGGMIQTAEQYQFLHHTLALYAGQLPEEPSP
# [27] = molecular target: Eukaryotic translation initiation factor 4H (Homo sapiens, UniProt Q15056); test: eIF4H inhibition in translation initiation, SAR follow-up (AID 435011); type: functional
# [28] = molecular target: Polyadenylate-binding protein 1 (Homo sapiens, UniProt P11940); test: PABP inhibition in translation initiation, SAR follow-up (AID 435018); type: functional
# [29] = molecular target: T6, Kappa-type opioid receptor; test: SAR analysis of small molecule agonists of the kappa opioid receptor via a luminescent beta-arrestin assay - Set 2. [Related pubchem assays (depositor defined):AID1777, AID1785, AID1786, AID1966, AID2133, AID2136, AID2284, AID449737]; type: functional
smiles,measurement,setting,value
O=S(=O)(c1cc(O)ccc1O)c1cccc2c(S(=O)(=O)c3cc(O)ccc3O)cccc12,IC50,[1],38.9 µM (active)
same,IC50,Bcl-2-like protein 1,> 109 µM (not active)
same,IC50,[2],5.39 µM (active)
same,IC50,[3],> 66.6 µM (inactive)
same,IC50,[4],12.8 µM (active)
same,EC50,[5],15 µM (active)
same,IC50,[6],3.81 µM (active)
same,IC50,[7],8.31 µM (active)
O=c1c2ccc(Cl)cc2nc(-c2cccc(C(F)(F)F)c2)n1O,EC50,[8],6.6 µM (active)
same,CC50,[9],2.96 µM (active)
same,EC50,[10],> 150 µM (inactive)
same,EC50,[11],10.4 µM (active)
same,EC50,[12],15.6 µM (active)
same,EC50,[13],0.605 µM (active)
same,AC50,Cytochrome P450 3A4,28.2 µM (inconclusive)
same,CC50,[14],11.9 µM (active)
same,IC50,cells,6.27 µM (active)
same,CC50,[15],5.29 µM (active)
same,EC50,[16],9.65 µM (active)
same,EC50,[17],> 180 µM (inactive)
same,EC50,[18],> 195 µM (not active)
same,IC50,[19],11 µM (active)
CCn1c(O)c(N=NC(=O)c2cccc(S(=O)(=O)N3CCCCC3)c2)c2ccccc21,EC50,[20],2.37 µM (active)
CCN(CC)S(=O)(=O)c1ccc(Cl)c(NC(=O)COC(=O)C2CCCCC2)c1,EC50,T-cell,0.246 µM (active)
same,EC50,Integrin alpha-L,0.026 µM (active)
CCCn1c(/C=C/c2ccccc2)nc2ccccc21,IC50,[21],> 100 µM (inactive)
same,AC50,Cytochrome P450 2C9,inconclusive
COc1ccccc1-n1c(S)nnc1-c1ccccc1,IC50,[22],4.11 µM (active)
same,IC50,[23],> 100 µM (inactive)
COc1cc2c(cc1OC)C1(CCCC1)CNC2c1cccc([N+](=O)[O-])c1 (stereo unspecified),EC50,Beta-galactosidase,8.91 µM (active)
same,IC50,[24],> 32 µM
same,IC50,[25],5.26 µM (active)
O=C(Nc1ccc2nc(-c3ccco3)c(-c3ccco3)nc2c1)NC1CCCCC1,IC50,[26],> 50 µM (inactive)
COc1ccc([N+](=O)[O-])cc1NC(=O)C(C)OC(=O)c1ccc(NC(N)=O)cc1 (stereo unspecified),IC50,[27],> 100 µM (inactive)
same,IC50,[28],> 100 µM (inactive)
O=C(CN(Cc1cccs1)C(=O)c1cccnc1)NC1CCCCCC1,EC50,[29],> 20 µM (inactive)
